Test results published in US20050197331A1, “Novel anti-inflammatory and analgesic heterocyclic amidines that inhibit nitrogen oxide (NO) production” (ROTTAPHARM SPA, priority 2004, published 2005).
Like-named read-outs stand apart in the source and are kept apart here.

What was measured:
[1] = test system: rabbit articular chondrocytes; assay: Cellular toxicity on rabbit articular chondrocytes; format: cell-based; conditions: noted beside IN in Table 3
Description: (§1) a) The inhibitory activity on the formation of NO measured as NO2^− (nitrite) and PGE2 was studied in vitro on culture media of rabbit articular chondrocytes stimulated with the cytokine IL-1β (1 ng/ml) for 48 hours. For the preparation of the chondrocytes, the method described by Berenbaum et al. [FEBS Letters 340, 51-55 (1994)] was followed. Briefly, fragments of cartilage removed aseptically from the articular heads of rabbit shoulder, hip and knee were finely ground and digested at 37° C. in hyaluronidase, trypsin and collagenase solutions, giving, after filtration through sterile gauze and centrifugation at 600×g and suitable dilution with 10% DMEM-FCS 10%, a concentration per well of about 1×10^5 cells. The cells were maintained under these conditions until confluent (about 15 days), the medium being replaced every 3 days. At this point, the test products dissolved in the medium were added to each sample and, after 20 minutes, 350 μl of IL-1β were added, to give a final concentration of 1 ng/ml. The stimulation lasted 48 hours at 37° C. (incubation in air/7% CO2). A nitrite assay was subsequently performed on the cell supernatant, as described by Green et al. [Anal. Biochem. 126, 131-138 (1982)], and of PGE2 by RIA assay. The results obtained are shown in Table 3, in which is given, for a number of the compounds that are the subject of the invention and that are already illustrated in Table 1, the IC50, i.e. the concentration (micromolar) of antagonist capable of inhibiting the formation of nitrites and PGE2 by 50% relative to the control group, i.e. relative to the cells stimulated with IL-1β but without addition of antagonists.

PGE2 = assay: Inhibition of PGE2 formation in rabbit articular chondrocytes stimulated with IL-1β (RIA); format: cell-based; conditions: for IC50: Oryctolagus cuniculus, Chondrocyte
Description: as §1

[2] = rabbit articular chondrocytes, IL-1β 1 ng/ml, 48 hours, RIA
[3] = rabbit articular chondrocytes, IL-1β 1 ng/ml, 48 hours, RIA, read-out: Inhibition % IC50 PGE2

SMILES | Tox = cellular toxicity (concentration) [1] [µM] | melting point [°C] | Inhibition % IC50 PGE2 (PGE2; [2]) | IC50 (PGE2; [3]) [µM] | IC50 (PGE2; rabbit articular chondrocytes stimulated with IL-1β, read-out: IC50, formation of PGE2) [µM]
CC(=N)Nc1ccc2c(c1)cc(-c1ccccc1)n2C [Compound 6, N-(1-methyl-2-phenyl-1H-indol-5-yl)acetamidine] | 30 | 184.6 to 185.8 | IN (IN = <25% inhibitory activity at 30 × 10^−6M) | – | –
COc1ccccc1-c1nc2cc(NC(C)=N)ccc2s1 [Compound 10, N-[2-(2-methoxyphenyl)benzothiazol-5-yl]acetamidine] | 100 | 163 to 165 | – | 5.9 | –
COc1ccc(-c2nc3cc(NC(C)=N)ccc3s2)cc1 [Compound 15, N-[2-(4-methoxyphenyl)benzothiazol-5-yl]acetamidine] | 30 | 203 to 204.7 | – | 7.4 | –
COc1ccc(-c2nc3cc(NC(C)=N)ccc3s2)c(OC)c1 [Compound 16, N-[2-(2,4-dimethoxyphenyl)benzothiazol-5-yl]acetamidine] | 30 | 156.4 to 158.3 | IN (IN = <25% inhibitory activity at 30 × 10^−6M) | – | –
COc1cccc(-c2nc3cc(NC(C)=N)ccc3s2)c1 [Compound 17, N-[2-(3-methoxyphenyl)benzothiazol-5-yl]acetamidine] | 30 | 141.6 to 145.6 | – | 1.3 | –
CC(=N)Nc1ccc2oc(-c3ccc(Cl)cc3)nc2c1 [Compound 30, N-[2-(4-chlorophenyl)benzoxazol-5-yl]acetamidine] | 30 | 183.6 to 185.1 | – | 0.3 | 0.3 to 0.8
